Source: ChEMBL document CHEMBL1201862, “PubChem BioAssay data set” (2004)
The source made the active and inactive calls.

How the values were obtained:
[1] = biological target: DNA dC->dU-editing enzyme APOBEC-3G (Homo sapiens, UniProt Q9HC16); assay: Dose Response confirmation of small molecule APOBEC3G DNA Deaminase Inhibitors via a fluorescence-based single-stranded DNA deaminase assay. [Related pubchem assays (depositor defined):AID493012, AID493028]; type: functional
[2] = biological target: DNA dC->dU-editing enzyme APOBEC-3A (Homo sapiens, UniProt P31941); assay: APOBEC3A DNA deaminase inhibitors, dose response, biochemical (AID 504722); type: functional
Chain of DNA dC->dU-editing enzyme APOBEC-3A (P31941 whole entry): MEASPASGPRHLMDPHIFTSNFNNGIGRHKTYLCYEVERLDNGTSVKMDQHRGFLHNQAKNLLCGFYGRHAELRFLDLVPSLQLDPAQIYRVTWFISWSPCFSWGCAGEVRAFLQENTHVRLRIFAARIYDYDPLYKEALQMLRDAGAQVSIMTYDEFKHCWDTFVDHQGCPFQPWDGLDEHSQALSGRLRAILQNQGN

[3] = biological target: T1, Short transient receptor potential channel 4 (Mus musculus, UniProt Q9QUQ5); assay: mouse TRPC4 channel inhibitors, dose response, cell-based, HEK293 TRPC4/mu-opioid, Fluo-4 calcium (AID 434942); type: functional;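 also: potency of inhibitors blocking the TRPC4 calcium response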
T1 sequence (Q9QUQ5 whole entry): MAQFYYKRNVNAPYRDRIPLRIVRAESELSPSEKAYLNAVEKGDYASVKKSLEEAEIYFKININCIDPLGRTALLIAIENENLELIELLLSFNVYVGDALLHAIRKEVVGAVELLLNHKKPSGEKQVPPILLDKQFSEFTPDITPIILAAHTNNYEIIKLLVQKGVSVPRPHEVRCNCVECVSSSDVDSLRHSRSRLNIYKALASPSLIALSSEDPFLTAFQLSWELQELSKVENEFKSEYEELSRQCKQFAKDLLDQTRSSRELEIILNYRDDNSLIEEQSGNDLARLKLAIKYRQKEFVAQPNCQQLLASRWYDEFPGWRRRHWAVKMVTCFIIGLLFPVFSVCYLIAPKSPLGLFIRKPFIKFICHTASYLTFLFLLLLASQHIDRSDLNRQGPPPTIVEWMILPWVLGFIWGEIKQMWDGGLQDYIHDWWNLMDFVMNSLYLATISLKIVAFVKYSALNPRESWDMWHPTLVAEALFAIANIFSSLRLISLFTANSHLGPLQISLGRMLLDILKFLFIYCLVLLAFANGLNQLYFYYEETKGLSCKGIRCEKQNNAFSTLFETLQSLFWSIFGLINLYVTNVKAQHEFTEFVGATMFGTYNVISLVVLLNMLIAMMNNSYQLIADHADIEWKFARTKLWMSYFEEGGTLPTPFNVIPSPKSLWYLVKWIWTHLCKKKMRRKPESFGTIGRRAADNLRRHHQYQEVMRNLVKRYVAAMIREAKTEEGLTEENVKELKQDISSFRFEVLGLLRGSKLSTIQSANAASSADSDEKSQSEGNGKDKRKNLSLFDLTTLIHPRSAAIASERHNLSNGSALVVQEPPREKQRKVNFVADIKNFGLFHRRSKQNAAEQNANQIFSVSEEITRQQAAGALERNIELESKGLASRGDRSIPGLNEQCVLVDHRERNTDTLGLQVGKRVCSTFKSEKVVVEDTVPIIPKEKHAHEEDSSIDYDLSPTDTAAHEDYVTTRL

[4] = biological target: T2, Cytochrome P450 1A2 (Homo sapiens, UniProt P05177);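 also: PubChem cytochrome P450 panel assay, CYP1A2 panel member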
T2 sequence (P05177 whole entry): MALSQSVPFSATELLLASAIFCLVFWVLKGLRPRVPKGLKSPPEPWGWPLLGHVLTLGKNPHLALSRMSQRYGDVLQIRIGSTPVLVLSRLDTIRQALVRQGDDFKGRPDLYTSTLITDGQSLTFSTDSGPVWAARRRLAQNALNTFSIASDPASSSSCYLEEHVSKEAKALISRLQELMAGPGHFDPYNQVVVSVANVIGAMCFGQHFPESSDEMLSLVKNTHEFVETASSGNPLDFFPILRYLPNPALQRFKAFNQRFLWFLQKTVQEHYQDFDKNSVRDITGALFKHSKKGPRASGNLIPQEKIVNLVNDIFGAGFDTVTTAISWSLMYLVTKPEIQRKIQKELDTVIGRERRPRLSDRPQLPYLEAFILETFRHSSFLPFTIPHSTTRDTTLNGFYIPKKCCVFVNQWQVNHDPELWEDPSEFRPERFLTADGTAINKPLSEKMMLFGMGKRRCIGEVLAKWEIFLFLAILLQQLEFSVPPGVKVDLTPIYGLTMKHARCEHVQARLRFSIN

[5] = test system: HEK293; assay: NOD2 signaling inhibitors in MDP-stimulated cells, cell-based, uHTS, luminescence (AID 2001); type: functional; conditions: Homo sapiens
[6] = test system: HEK293; assay: cells; type: functional, cell-based; conditions: Homo sapiens
[7] = test system: HEK293; assay: NOD1 signaling inhibitors, primary screen, cell-based, luminescence, uHTS (AID 1578); type: functional; conditions: Homo sapiens
[8] = test system: HEK293; assay: cells; type: functional, cell-based; conditions: Homo sapiens; remark: listed apart in the source
[9] = biological target: Nucleotide-binding oligomerization domain-containing protein 2 (Homo sapiens, UniProt Q9HC29); assay: NOD2 signaling inhibitors, cell-based, luminescence, uHTS, HEK293 (AID 1566); type: functional
[10] = test system: INS1; assay: beta cell apoptosis inhibitors, cytokine rescue, dose response, luminescence, retest (AID 449756); type: functional, cell-based; conditions: Rattus norvegicus;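 also: cell death triggered by IL-1 beta plus TNF-alpha plus IFN-gamma mixture; protective hits raise ATP signal compared with cytokine alone wells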
[11] = cells; type: functional
[12] = biological target: FAD-linked sulfhydryl oxidase ALR (Homo sapiens, UniProt P55789); assay: inhibitors of human ALR sulfhydryl oxidase, dose response, biochemical, H2O2 detection, luminescence, cherry-pick (AID 493248)
Chain of FAD-linked sulfhydryl oxidase ALR (P55789 whole entry): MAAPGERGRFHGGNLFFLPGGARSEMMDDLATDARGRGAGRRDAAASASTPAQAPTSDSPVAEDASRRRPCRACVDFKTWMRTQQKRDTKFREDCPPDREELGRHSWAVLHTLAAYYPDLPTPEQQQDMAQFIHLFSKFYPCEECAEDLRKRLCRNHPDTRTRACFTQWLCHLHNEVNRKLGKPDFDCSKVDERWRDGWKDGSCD

[13] = inhibitors of intracellular T. cruzi replication, confirmation, NIH3T3 host cells, beta-gal luminescence (AID 2044); type: functional, cell-based;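 also: intracellular parasites grown in NIH/3T3 mouse fibroblasts as host cells; luminescent beta-galactosidase reporter signal from transgenic T. cruzi replicating inside host cells; inhibitors lower the luminescence signal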
[14] = cytotoxicity toward NIH3T3 fibroblasts, dose response, counter-screen, cell-based, ATP luminescence, mouse fibroblasts (AID 2010); type: functional;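 also: cells exposed to compound for about 90 hours before reading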
[15] = HepG2 cell cytotoxicity, dose response, cytotoxicity control for non-replicating M. tuberculosis project (AID 489018); type: functional; conditions: Mycobacterium tuberculosis
[16] = THP-1 cell cytotoxicity, dose response, cytotoxicity control for non-replicating M. tuberculosis project (AID 489025); type: functional
[17] = biological target: Large T antigen (Simian virus 40, UniProt P03070); type: functional, Betapolyomavirus macacae;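 also: Confirmatory-stage PubChem screen for compounds that inhibit SV40 T antigen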
[18] = Vero E6 cell cytotoxicity, dose response, cytotoxicity control for non-replicating M. tuberculosis project, secondary assay (AID 492998); type: functional, VeroE6; conditions: Vero C1008
[19] = biological target: Peroxisome proliferator-activated receptor gamma/Nuclear receptor coactivator 1 (Homo sapiens, UniProt P37231); assay: TR-FRET dose response biochemical High Throughput Screening assay for agonists of the steroid receptor coactivator 1 (SRC-1) recruitment by the peroxisome proliferator-activated receptor gamma (PPAR gamma): non-selective agonists. [Related pubchem assays (depositor defined):AID1300, AID1808, AID504735, AID631]; type: protein assay
Chain of Peroxisome proliferator-activated receptor gamma/Nuclear receptor coactivator 1 (P37231 whole entry): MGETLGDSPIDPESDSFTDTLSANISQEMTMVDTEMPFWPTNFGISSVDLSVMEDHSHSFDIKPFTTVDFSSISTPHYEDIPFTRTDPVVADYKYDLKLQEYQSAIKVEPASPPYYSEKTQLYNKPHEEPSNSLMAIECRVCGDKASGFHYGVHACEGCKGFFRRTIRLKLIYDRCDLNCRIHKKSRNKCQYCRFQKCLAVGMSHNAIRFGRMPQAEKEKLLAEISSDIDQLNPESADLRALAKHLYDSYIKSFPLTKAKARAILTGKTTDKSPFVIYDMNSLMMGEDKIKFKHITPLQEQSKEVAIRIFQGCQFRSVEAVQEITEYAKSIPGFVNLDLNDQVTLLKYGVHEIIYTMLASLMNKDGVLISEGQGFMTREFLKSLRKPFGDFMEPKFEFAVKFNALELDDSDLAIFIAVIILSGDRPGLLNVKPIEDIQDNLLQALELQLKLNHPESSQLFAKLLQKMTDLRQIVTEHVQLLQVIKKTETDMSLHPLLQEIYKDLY
Chain of Peroxisome proliferator-activated receptor gamma/Nuclear receptor coactivator 1 (Q15788 whole entry, further chain): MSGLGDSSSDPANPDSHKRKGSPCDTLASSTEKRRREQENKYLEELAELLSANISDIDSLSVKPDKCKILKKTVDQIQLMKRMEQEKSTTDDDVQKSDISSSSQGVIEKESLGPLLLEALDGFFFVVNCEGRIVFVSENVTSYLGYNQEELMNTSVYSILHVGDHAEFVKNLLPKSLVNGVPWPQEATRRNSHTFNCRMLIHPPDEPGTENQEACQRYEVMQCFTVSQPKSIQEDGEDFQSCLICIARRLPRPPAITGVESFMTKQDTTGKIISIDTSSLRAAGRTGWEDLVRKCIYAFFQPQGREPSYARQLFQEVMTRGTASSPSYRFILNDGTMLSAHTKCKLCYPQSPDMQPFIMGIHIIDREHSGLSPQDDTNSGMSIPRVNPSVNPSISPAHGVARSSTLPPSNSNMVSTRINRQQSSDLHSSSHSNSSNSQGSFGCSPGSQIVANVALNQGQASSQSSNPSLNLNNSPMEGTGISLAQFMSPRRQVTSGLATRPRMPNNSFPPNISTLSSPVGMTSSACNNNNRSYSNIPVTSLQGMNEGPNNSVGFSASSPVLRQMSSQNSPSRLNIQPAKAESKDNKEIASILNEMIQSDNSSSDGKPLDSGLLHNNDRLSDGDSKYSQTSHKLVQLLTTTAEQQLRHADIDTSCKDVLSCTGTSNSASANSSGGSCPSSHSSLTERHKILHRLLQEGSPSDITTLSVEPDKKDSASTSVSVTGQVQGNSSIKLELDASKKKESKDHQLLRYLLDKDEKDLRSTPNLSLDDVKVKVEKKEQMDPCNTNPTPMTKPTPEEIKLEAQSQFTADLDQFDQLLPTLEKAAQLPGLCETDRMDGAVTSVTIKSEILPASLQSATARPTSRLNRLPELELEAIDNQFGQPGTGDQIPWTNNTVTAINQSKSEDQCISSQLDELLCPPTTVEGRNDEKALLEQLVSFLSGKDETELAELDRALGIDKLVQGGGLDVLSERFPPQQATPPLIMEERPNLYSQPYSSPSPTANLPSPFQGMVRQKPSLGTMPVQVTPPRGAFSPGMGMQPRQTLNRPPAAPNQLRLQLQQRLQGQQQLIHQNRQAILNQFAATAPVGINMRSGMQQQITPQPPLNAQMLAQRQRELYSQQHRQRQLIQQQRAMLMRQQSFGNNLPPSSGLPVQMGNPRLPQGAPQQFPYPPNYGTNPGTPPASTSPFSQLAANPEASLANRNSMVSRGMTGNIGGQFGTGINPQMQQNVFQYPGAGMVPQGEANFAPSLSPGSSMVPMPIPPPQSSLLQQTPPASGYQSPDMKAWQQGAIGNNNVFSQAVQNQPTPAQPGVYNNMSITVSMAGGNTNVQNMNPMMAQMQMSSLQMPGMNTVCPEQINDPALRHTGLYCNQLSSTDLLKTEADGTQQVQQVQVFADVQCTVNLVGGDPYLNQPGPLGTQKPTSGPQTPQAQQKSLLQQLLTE

[20] = biological target: Peroxisome proliferator-activated receptor gamma/Nuclear receptor coactivator 2 (Homo sapiens, UniProt P37231); assay: TR-FRET dose response biochemical High Throughput Screening assay for agonists of the steroid receptor coactivator 2 (SRC-2) recruitment by the peroxisome proliferator-activated receptor gamma (PPAR gamma): non-selective agonists. [Related pubchem assays: 1297, 1032 ]; type: functional
Chain of Peroxisome proliferator-activated receptor gamma/Nuclear receptor coactivator 2 (P37231 whole entry): as the sequence (P37231 whole entry) above
Chain of Peroxisome proliferator-activated receptor gamma/Nuclear receptor coactivator 2 (Q15596 whole entry, further chain): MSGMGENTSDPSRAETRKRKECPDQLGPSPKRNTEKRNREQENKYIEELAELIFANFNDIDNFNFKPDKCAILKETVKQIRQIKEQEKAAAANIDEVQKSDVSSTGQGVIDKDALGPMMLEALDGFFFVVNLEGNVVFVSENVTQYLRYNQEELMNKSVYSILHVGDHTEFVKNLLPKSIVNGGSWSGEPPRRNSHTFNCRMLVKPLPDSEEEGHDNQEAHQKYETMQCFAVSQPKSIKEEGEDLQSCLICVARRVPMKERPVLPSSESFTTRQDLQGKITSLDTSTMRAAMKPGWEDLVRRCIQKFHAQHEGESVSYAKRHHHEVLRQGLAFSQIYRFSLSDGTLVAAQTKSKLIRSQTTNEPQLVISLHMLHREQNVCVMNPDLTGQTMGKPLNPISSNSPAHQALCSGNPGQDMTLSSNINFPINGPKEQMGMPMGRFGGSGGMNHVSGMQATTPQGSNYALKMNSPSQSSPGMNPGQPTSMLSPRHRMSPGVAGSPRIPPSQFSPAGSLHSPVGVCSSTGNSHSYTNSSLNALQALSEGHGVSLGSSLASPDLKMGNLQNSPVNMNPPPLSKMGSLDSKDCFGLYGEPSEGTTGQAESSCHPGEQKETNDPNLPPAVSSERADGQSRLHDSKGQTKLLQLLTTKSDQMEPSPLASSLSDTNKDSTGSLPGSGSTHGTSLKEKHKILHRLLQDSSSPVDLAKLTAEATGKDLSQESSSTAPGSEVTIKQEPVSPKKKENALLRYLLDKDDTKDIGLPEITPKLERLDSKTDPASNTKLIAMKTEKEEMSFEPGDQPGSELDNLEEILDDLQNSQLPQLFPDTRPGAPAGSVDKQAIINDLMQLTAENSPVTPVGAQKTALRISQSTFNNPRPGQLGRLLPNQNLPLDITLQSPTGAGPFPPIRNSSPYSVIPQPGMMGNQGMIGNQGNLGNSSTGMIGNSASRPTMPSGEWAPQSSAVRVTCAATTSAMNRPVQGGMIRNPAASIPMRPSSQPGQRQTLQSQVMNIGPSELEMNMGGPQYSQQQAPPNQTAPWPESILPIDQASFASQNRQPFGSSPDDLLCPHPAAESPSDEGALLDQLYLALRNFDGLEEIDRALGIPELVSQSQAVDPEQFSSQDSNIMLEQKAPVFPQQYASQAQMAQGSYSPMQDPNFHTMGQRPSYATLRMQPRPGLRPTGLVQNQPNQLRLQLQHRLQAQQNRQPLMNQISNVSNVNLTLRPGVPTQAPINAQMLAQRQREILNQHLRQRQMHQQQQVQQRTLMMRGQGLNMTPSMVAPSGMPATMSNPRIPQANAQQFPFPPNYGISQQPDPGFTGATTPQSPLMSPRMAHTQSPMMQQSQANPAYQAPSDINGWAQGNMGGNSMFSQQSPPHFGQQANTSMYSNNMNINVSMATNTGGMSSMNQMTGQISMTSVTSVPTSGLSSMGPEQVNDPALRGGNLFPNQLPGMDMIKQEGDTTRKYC

[21] = biological target: Peroxisome proliferator-activated receptor gamma/Nuclear receptor coactivator 3 (Homo sapiens, UniProt P37231); assay: TR-FRET dose response biochemical High Throughput Screening assay for agonists of the steroid receptor coactivator 3 (SRC-3) recruitment by the peroxisome proliferator-activated receptor gamma (PPAR gamma): non-selective agonists. [Related pubchem assays: 1301 (Confirmation screen.), 1048 (Primary screen.)]; type: functional
[22] = A cytotoxicity screen of small molecule inhibitors of the PhoP region in Salmonella typhi identified in the primary screen. [Related pubchem assays: 1850, 1864, 1985 ]; type: functional
[23] = biological target: Nonstructural protein 1 (Influenza A virus, UniProt Q194T2); type: functional, Influenza A virus (A/California/07/2009(H1N1))
Chain of Nonstructural protein 1 (Q194T2 whole entry): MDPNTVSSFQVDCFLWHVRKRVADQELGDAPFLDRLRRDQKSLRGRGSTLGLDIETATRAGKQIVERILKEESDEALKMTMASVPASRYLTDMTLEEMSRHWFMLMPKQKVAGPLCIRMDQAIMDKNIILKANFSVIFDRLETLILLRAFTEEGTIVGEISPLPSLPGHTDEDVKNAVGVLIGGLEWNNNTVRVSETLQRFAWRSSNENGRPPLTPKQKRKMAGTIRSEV

[24] = biological target: T3, Protein RecA (Mycobacterium tuberculosis, UniProt P9WHJ3); assay: Fluorescence Cell-Free Homogeneous Dose Retest to Identify Inhibitors of RecA-Intein Splicing Activity. [Related pubchem assays (depositor defined):AID2097, AID2223, AID489010, AID492950]; type: functional
T3 sequence (P9WHJ3 whole entry): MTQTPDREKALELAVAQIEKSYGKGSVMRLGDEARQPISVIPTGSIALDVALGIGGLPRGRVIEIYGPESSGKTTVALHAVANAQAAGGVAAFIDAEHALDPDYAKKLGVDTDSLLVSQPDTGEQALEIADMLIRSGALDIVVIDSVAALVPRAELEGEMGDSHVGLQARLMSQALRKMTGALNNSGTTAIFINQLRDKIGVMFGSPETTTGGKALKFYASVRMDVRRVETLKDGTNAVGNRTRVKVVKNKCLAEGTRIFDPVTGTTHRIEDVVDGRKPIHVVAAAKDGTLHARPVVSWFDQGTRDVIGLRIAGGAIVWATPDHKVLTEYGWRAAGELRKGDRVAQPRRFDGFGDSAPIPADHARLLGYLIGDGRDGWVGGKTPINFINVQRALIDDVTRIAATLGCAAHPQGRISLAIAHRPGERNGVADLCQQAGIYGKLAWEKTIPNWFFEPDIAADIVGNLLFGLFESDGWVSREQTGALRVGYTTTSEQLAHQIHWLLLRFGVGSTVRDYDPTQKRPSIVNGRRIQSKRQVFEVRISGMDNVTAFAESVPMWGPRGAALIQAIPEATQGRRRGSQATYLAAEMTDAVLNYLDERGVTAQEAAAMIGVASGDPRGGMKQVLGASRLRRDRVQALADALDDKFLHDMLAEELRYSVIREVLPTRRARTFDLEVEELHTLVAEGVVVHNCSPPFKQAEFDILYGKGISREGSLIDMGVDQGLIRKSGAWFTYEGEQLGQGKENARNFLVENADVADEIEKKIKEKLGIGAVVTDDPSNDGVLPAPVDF

[25] = biological target: T4, Replicative DNA helicase DnaB (Mycobacterium tuberculosis, UniProt P9WMR3); assay: DnaB intein splicing inhibitors, dose response, biochemical, cell-free fluorescence (AID 449749); type: functional
T4 sequence (P9WMR3 whole entry): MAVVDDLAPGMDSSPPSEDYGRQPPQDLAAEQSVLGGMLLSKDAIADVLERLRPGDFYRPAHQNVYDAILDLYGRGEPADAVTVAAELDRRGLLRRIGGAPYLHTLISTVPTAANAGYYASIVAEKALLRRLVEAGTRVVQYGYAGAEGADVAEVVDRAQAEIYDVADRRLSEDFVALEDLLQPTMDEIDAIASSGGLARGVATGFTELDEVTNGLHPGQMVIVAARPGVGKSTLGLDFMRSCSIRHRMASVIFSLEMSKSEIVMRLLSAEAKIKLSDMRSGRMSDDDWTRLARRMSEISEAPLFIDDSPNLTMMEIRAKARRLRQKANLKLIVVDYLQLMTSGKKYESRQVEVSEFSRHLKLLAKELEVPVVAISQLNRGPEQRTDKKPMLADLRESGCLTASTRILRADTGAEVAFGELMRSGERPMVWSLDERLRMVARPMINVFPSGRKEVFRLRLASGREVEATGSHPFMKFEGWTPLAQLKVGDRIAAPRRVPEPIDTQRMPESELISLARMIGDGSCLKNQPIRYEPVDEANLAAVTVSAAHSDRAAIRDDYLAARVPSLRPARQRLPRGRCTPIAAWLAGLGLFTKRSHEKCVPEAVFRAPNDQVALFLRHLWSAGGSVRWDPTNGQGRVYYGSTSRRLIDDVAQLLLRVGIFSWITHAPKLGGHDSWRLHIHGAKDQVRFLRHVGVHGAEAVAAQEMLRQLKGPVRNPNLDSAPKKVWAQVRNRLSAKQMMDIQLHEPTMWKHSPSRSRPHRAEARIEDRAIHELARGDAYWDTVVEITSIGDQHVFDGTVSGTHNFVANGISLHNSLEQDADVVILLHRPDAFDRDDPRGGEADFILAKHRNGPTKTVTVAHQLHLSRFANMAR

Chain of DNA dC->dU-editing enzyme APOBEC-3G (Q9HC16 whole entry): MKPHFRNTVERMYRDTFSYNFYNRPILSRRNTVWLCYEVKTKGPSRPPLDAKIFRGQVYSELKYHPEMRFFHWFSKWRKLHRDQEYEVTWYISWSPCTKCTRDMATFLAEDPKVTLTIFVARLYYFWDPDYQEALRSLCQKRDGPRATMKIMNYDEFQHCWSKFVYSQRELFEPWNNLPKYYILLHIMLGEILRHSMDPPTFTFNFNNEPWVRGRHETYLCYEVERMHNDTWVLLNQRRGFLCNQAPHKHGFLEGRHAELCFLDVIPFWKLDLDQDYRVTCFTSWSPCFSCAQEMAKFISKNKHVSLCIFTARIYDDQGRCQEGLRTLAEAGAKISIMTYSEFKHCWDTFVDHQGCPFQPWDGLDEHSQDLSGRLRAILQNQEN

## C=C(C)Cn1c(-c2cccc([N+](=O)[O-])c2)n[nH]c1=S
[1]
  IC50: 5.5 µM (active)
[2]
  IC50: > 100 µM (inactive)

## Cc1nn(C)c(C)c1Sc1ccc(Br)cc1
[3]
  EC50: 4.73 µM (active)

## O=C(Nc1cccc(Cl)c1)N1CCN2C(=O)c3ccccc3C12c1ccccc1 (stereo not given)
[3]
  EC50: 3.76 µM (active)
[4]
  AC50: 3.16 µM (inconclusive)

## COc1ccc([N+](=O)[O-])cc1NCc1ccco1
[3]
  EC50: 2.99 µM (active)

## CC(=O)c1ccc(-n2c(C)c(C(C)=O)c3cc(O)ccc32)cc1
[5]
  IC50: 2.7 µM (active)
[6]
  IC50: 1.94 µM (active)
[7]
  EC50: > 20 µM (inactive)
[8]
  IC50: > 20 µM (inactive)
[9]
  EC50: > 20 µM (inactive)

## c1ccn2cc(C34CC5CC(CC(C5)C3)C4)nc2c1
[3]
  EC50: 6.68 µM (active)

## Cc1ccc2nc(-c3ccccn3)c(NC3CCCC3)n2c1
[10]
  AC50: 8.58 µM (active)
[11]
  IC50: 4.95 µM (active)
[12]
  AC50: 7.26 µM (active)
[13]
  EC50: 1.74 µM (active)
[14]
  EC50: > 60 µM (not active)
[15]
  CC50: > 20 µM (active)
[16]
  CC50: 14.3 µM (active)
[17]
  IC50: 11.6 µM (active)
[18]
  CC50: 16.5 µM (active)

## C=CCn1c(NC(C)c2cc(Cl)ccc2O)nc2ccccc21 (stereo not given)
[19]
  EC50: > 79.4 µM (inactive)
[20]
  EC50: > 79.4 µM (not active)
[21]
  EC50: 13.3 µM (not active)
[22]
  EC50: > 50 µM (active)

## C/C(=N\Nc1nc2ccccc2[nH]1)c1ccc(N2CCOCC2)cc1
[11]
  IC50: 20.3 µM (active)
[15]
  CC50: > 20 µM (active)

## C/C(=N\NC(=O)c1c[nH]c2ccccc12)c1ccccn1
[11]
  IC50: 4.29 µM (active)
[13]
  EC50: 1.73 µM (active)
[14]
  EC50: 3.97 µM (active)
[15]
  CC50: 12.1 µM (active)
[23]
  IC50: 3.17 µM (active)
[16]
  CC50: 6.55 µM (active)
[18]
  CC50: 2.01 µM (active)

## O=C1c2ccccc2-n2c1nc1ccccc1c2=O [TRYPTANTHRIN]
[11]
  IC50: 0.33 µM (active)
[24]
  EC50: 0.643 µM (active)
[15]
  CC50: > 20 µM (active)
[16]
  CC50: 17.5 µM (active)
[25]
  AC50: 1.08 µM (active)
[18]
  CC50: > 20 µM (active)
